This note sets out measurements from article doi:10.1101/2022.07.05.498881v1 (biorxiv, 2022).

Like-named read-outs stand apart in the source and are kept apart here.

For assay [1], the target named is T1, SARS-CoV-2 MPro (main protease, 3CL protease, Nsp5) (Severe acute respiratory syndrome coronavirus 2, UniProt P0DTD1).
T1 construct: gene rep
Kind of assay: biochemical. Also on record: fluorogenic NSP7 peptide substrate cleavage, concentration-response inhibition of MPro.

Assay [2] addresses T1, SARS-CoV-2 MPro (main protease, 3CL protease, Nsp5). Also on record: fluorogenic NSP7 peptide substrate cleavage, concentration-response inhibition of MPro. The note with it: read-out: IC50 [µM] (ACN); compound in acetonitrile; inhibitor.
Assay [3] addresses T2, MERS MPro (MERS-CoV MPro, MERS major protease) (Betacoronavirus England 1, UniProt K9N7C7).
T2 construct: gene rep
Kind of assay: biochemical.

Assay [4] addresses T3, SARS-CoV-1 MPro (SARS-CoV-1 major protease) (Severe acute respiratory syndrome-related coronavirus, UniProt P0C6X7).
T3 construct: gene rep
Kind of assay: biochemical.

T2 sequence (K9N7C7 3248-3553 limits assumed): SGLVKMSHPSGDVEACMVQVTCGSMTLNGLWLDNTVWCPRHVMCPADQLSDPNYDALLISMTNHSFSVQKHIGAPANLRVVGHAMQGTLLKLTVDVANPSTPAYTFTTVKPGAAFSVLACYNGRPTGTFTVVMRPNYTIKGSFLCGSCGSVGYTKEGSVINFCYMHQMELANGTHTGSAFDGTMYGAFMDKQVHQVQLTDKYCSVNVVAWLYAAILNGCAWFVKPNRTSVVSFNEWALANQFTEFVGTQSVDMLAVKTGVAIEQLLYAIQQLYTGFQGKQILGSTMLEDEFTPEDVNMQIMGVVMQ

In assay [1], `COc1cc(C=O)c(OS(=O)(=O)CC2CCCCC2)cc1OC` [ZINC271072260] yielded a half-maximal inhibitory concentration (IC50) of 115 µM.
With `CC1CN(c2ncnc3sc4ccccc4c23)CC(=O)N1C` (stereo not shown) [ZINC336912805], the IC50 in assay [2] was determined as 177 µM; in assay [1] (read-out: IC50 [µM] (DMSO), compound in DMSO, inhibitor), 250 µM.
In turn, `O=C(Cc1cccnc1)N(Cc1ccccn1)c1ccc(Cl)cc1` [ZINC346371112] yielded an IC50 in assay [1] of 214 µM.
In the case of `O=Cc1ncc(Br)cc1OCc1ccc(Cl)c([N+](=O)[O-])c1` ['7021], the values for the IC50 in assay [3] and in assay [4] were 50 µM and 8 µM, respectively.
For the molecule `COC(=O)c1cc(C#N)c(=O)n(Cc2cccc(F)c2Cl)c1` [ZINC338540162], in assay [1], the midpoint of inhibition, the IC50, lay at 281 µM.
On the same count and under the same terms, the same measure for `O=c1cc(CN2CC(CO)c3ccccc32)nc2ccccn12` (stereo not shown) [ZINC433294115]: 97 µM; for `CC1CN(C(=O)CCn2cc(Br)ccc2=O)Cc2ccccc2O1` (stereo not shown) [ZINC553840273]: 200 µM.
The same measure, in the same setting: to `Cc1noc(C)c1CCCNc1nc(-c2ccncc2)nc2ccccc12` [ZINC301553312] belongs 122 µM.

One may read the IC50 as the midpoint of a concentration-inhibition curve.
